From patent publication US9676771B2, “Compounds for inhibiting drug-resistant strains of HIV-1 integrase” (priority 2013, dated 2017)
Read-outs that look alike come from different tables or passages of the source.

Legend:
[1] = in vitro; format: cell-based, human; conditions: human, 50% reduction in the level of ATP in HOS cells
Procedure: Cellular Cytotoxicity Assay.
On the day of the screen, cells were treated with compounds at the appropriate concentration range chosen and incubated at 37° C. for 48 hrs. Cytotoxicity was measured by monitoring ATP levels via a luciferase reporter assay. Cells were lysed in 50 μL cell lysis buffer (PerkinElmer, Waltham, Mass.) and shaken at 700 rpm at room temperature for 5 mins After the addition of 50 μL of ATPlite buffer (PerkinElmer) directly onto the lysed cells and shaking at 700 rpm at room temperature for 5 mins, ATP levels were monitored by measuring luciferase activity using a microplate reader. Activity was normalized to cytotoxicity in the absence of target compounds. KaleidaGraph (Synergy Software, Reading, Pa.) was used to perform regression analysis on the data. CC50 values were determined from the fit model.

[2] = tested on: HIV-1 constructs containing mutant IN N155H; test: microbe, parasite or virus in culture; format: cell-based; conditions: Human immunodeficiency virus 1
Source text: (§1) Single-Round HIV-1 Infectivity Assay.
(§2) Human embryonyl kidney cell culture cell line 293 was acquired from the American type Culture Collection (ATCC).
(§3) The virus-containing supernatants were then harvested, clarified by low-speed centrifugation, filtrated, and diluted for preparation in infection assays. […] Activity was normalized to infectivity in the absence of target compounds. KaleidaGraph (Synergy Software, Reading, Pa.) was used to perform regression analysis on the data. EC50 values were determined from the fit model.
(§4) pNLNgoMIVR^−ΔEnv.LUC has been described previously (Zhao et al. 2008). The integrase codon reading frame was removed from pNLNgoMIVR^−ΔEnv LUC (between KpnI and SalI sites) and placed between the KpnI and SalI sites of pBluescript II KS+. Using that construct as the wild-type template, we prepared the following HIV-1 Integrase-resistant mutants via the QuikChange II XL (Stratagene, La Jolla, Calif.) site-directed mutagenesis protocol: H51Y, T66I, E92Q, G118R, Y143R, Q148H, Q148K, N155H, R263K, G140S+Q148H, G140A+Q148K, E138K+Q148K, and H51Y+R263K. The following sense with cognate antisense (not shown) oligonucleotides (Integrated DNA Technologies, Coralville, Iowa) were used in the mutagenesis: H51Y, 5′-[…]-3; T66I, 5′-[…]-3′; E92Q, 5′-[…]-3′; G118R, 5′-[…]-3′; E138K, 5′-[…]-3; G140A, 5′-[…]-3; G140S, 5′-[…]-3′; Y143R, 5′-[…]-3′; Q148H, 5′-[…]-3′; Q148K, 5′-[…]-3; N155H, 5′-[…]-3′; R263K 5′-[…]-3′. The double mutation G140S+Q148H was constructed by using the previously generated Q148H mutant and the appropriate oligonucleotide for the 2nd mutation, G140S. The double mutation G140A+Q148K was made by using the Q148K mutant and the appropriate oligonucleotide for the 2nd mutation, G140A. The double mutation E138K+Q148K was made by using the Q148K mutant and the appropriate oligonucleotide for the 2nd mutation, E138K. The double mutation H51Y+R263K was constructed by using the previously generated H51Y mutant and the appropriate oligonucleotides for the 2nd mutation, R263K. The DNA sequence of each construct was verified independently by DNA sequence determination. […] These DNA sequences were additionally checked independently by DNA sequence determination.

[3] = tested on: HIV-1 constructs containing mutant IN Y143R; test: microbe, parasite or virus in culture; format: cell-based; conditions: Human immunodeficiency virus 1
Source text: as §1, §2, §3, §4

[4] = target: HIV-1 integrase (Human immunodeficiency virus type 1 group M subtype B, UniProt P12497); test: biochemical; format: biochemical
Procedure: In Vitro Integrase Assay.
Integrase reactions were carried out by adding drugs or an equivalent volume of 100% dimethyl sulfoxide (DMSO; used as the drug solvent) to a mixture of 20 nM DNA and 400 nM integrase in 50 mM morpholinepropanesulfonic acid (pH 7.2), 7.5 mM MgCl2, and 14 mM 2-mercaptoethanol. Reactions were performed at 37° C. for 2 h and quenched by the addition of an equal volume of loading buffer (formamide containing 1% sodium dodecyl sulfate, 0.25% bromophenol blue, and xylene cyanol). […] Dried gels were visualized using a Typhoon 8600 (GE Healthcare, Piscataway, N.J.). Densitometric analyses were performed using ImageQuant 5.1 software from GE Healthcare.

[5] = tested on: HIV-1 constructs containing wild-type IN; test: microbe, parasite or virus in culture; format: cell-based; conditions: for EC50: Human immunodeficiency virus 1, WT IN, read-out: EC50 (nM, WT)
Source text: as §1, §2, §3

[6] = tested on: HIV-1 constructs containing mutant IN G140S-Q148H; test: microbe, parasite or virus in culture; format: cell-based; conditions: Human immunodeficiency virus 1; Table 3; G140S-Q148H double mutant; read-out: EC50 (nM, IN Mutants) SH
Source text: as §1, §2, §3, §4

[7] = Table 3, read-out: EC50 (nM, IN Mutants) N155H
[8] = Table 3, read-out: EC50 (nM, IN Mutants) Y143R
[9] = Table 4, 3′-processing, read-out: IC50 (3^+-Processing)
[10] = Table 4, strand transfer, read-out: IC50 (Strand Transfer)
[11] = Table 1, 3′-processing, read-out: IC50 Values 3′-Processing
[12] = Table 1, strand transfer, read-out: IC50 Values Strand transfer
[13] = Table 5, read-out: EC50 (nM, IN Mutants) Y143R

Compound	CC50 ([1]; Table 3) [nM]	EC50 [2, 7] [nM]	EC50 [3, 8] [nM]	EC50 ([5]; Table 3) [nM]	IC50 [4, 9] [µM]	IC50 [4, 10] [µM]	Si (selectivity index) ([5]; Table 3, ratio of CC50 to EC50)	other results
O=C(NCc1ccc(F)cc1F)c1c(Nc2ccccc2)c2cccnc2n(O)c1=O [XZ377, N-(2,4-difluorobenzyl)-1-hydroxy-2-oxo-4-(phenylamino)-1,2-dihydro-1,8-naphthyridine-3-carboxamide]	> 250000	110 ± 17.2	24.9 ± 6.4	14.2 ± 1.9	–	–	–	IC50 ([4]; read-out: IC50 (3^+-Processing)): 6.9 ± 1.1 µM; IC50 ([4]; read-out: IC50 (Strand Transfer)): 0.018 ± 0.006 µM; Si (selectivity index) [5]: >17,857
O=C(NCc1ccc(F)cc1F)c1c(Nc2ccc(-c3ccccc3)cc2)c2cccnc2n(O)c1=O [XZ385, 4-([1,1′-biphenyl]-4-ylamino)-N-(2,4-difluorobenzyl)-1-hydroxy-2-oxo-1,2-dihydro-1,8-naphthyridine-3-carboxamide]	> 250000	–	361 ± 84	372 ± 63	52 ± 5	0.34 ± 0.08	>673	–
O=C(NCc1ccc(F)cc1F)c1c(Nc2ccc3c(c2)Cc2ccccc2-3)c2cccnc2n(O)c1=O [XZ386, 4-((9H-fluoren-2-yl)amino)-N-(2,4-difluorobenzyl)-1-hydroxy-2-oxo-1,2-dihydro-1,8-naphthyridine-3-carboxamide]	> 250000	–	448 ± 28.1	171 ± 56.8	46 ± 8	0.84 ± 0.21	>1,462	–
Nc1ccc(-c2ccc(Nc3c(C(=O)NCc4ccc(F)cc4F)c(=O)n(O)c4ncccc34)cc2)cc1 [XZ387, 4-((4′-amino-[1,1′-biphenyl]-4-yl)amino)-N-(2,4-difluorobenzyl)-1-hydroxy-2-oxo-1,2-dihydro-1,8-naphthyridine-3-carboxamide]	> 250000	423 ± 168	102 ± 1.4	6.3 ± 2.4	80 ± 11	0.13 ± 0.02	>25,000	–
N#Cc1ccc(-c2ccc(Nc3c(C(=O)NCc4ccc(F)cc4F)c(=O)n(O)c4ncccc34)cc2)cc1 [XZ388, 4-((4′-cyano-[1,1′-biphenyl]-4-yl)amino)-N-(2,4-difluorobenzyl)-1-hydroxy-2-oxo-1,2-dihydro-1,8-naphthyridine-3-carboxamide]	> 250000	–	346 ± 38.3	123 ± 20.7	70 ± 7	0.13 ± 0.03	>2,033	–
O=C(NCc1ccc(F)c(Cl)c1)c1cc2cccnc2n(O)c1=O [XZ391, N-(3-chloro-4-fluorobenzyl)-1-hydroxy-2-oxo-1,2-dihydro-1,8-naphthyridine-3-carboxamide]	> 250000	90.3 ± 5.6	33.9 ± 5.5	37.5 ± 14.5	–	–	–	IC50 [4, 11]: 9.4 ± 1.5 µM; IC50 [4, 12]: 0.014 ± 0.003 µM; Si (selectivity index) [5]: >6,667
O=C(NCc1ccc(F)c(F)c1)c1cc2cccnc2n(O)c1=O [XZ392, N-(3,4-difluorobenzyl)-1-hydroxy-2-oxo-1,2-dihydro-1,8-naphthyridine-3-carboxamide]	> 250000	2200 ± 61	39.7 ± 12.5	61.6 ± 13.8	–	–	–	IC50 [4, 11]: 13.6 ± 1.8 µM; IC50 [4, 12]: 0.017 ± 0.003 µM; Si (selectivity index) [5]: >4,058
O=C(NCc1ccc(F)cc1)c1cc2cccnc2n(O)c1=O [XZ393, N-(4-fluorobenzyl)-1-hydroxy-2-oxo-1,2-dihydro-1,8-naphthyridine-3-carboxamide]	> 250000	268 ± 89	24.1 ± 5.3	25.1 ± 9.4	–	–	>9,960	IC50 [4, 11]: 8.9 ± 1 µM; IC50 [4, 12]: 0.016 ± 0.003 µM
COC(=O)[C@@H](C)Nc1c(C(=O)NCc2ccc(F)cc2F)c(=O)n(O)c2ncccc12 [XZ395, (R)-methyl 2-((3-((2,4-difluorobenzyl)carbamoyl)-1-hydroxy-2-oxo-1,2-dihydro-1,8-naphthyridin-4-yl)amino)propanoat]	> 250000	–	8.1 ± 1.7	11.3 ± 4.7	–	–	–	EC50 [6]: 89.3 ± 26.3 nM
COC(=O)[C@H](Nc1c(C(=O)NCc2ccc(F)cc2F)c(=O)n(O)c2ncccc12)c1ccccc1 [XZ397, (R)-methyl 2-((3-((2,4-difluorobenzyl)carbamoyl)-1-hydroxy-2-oxo-1,2-dihydro-1,8-naphthyridin-4-yl)amino)-2-phenylacetate]	> 250000	21.6 ± 3.7	–	7.4 ± 3.3	–	–	–	–
CCOC(=O)[C@@H]1CCCN1c1c(C(=O)NCc2ccc(F)cc2F)c(=O)n(O)c2ncccc12 [XZ404, (S)-ethyl 1-(3-((2,4-difluorobenzyl)carbamoyl)-1-hydroxy-2-oxo-1,2-dihydro-1,8-naphthyridin-4-yl)pyrrolidine-2-carboxylate]	18200 ± 7100	–	1660 ± 920	590 ± 71.8	86 ± 6	0.31 ± 0.04	31	–
COc1ccc2c(O)c(C(=O)NCc3ccc(F)cc3F)c(=O)n(O)c2n1 [XZ405, N-(2,4-difluorobenzyl)-1,4-dihydroxy-7-methoxy-2-oxo-1,2-dihydro-1,8-naphthyridine-3-carboxamide]	–	–	–	–	32 ± 4	0.033 ± 0.005	–	CC50 ([1]; Table 5): 12100 ± 4600 nM; EC50 [3, 13]: 215 ± 31 nM; EC50 ([5]; Table 5): 186 ± 23.2 nM; SI ([5]; Table 5, ratio of CC50 to EC50): 65
COC(=O)CNc1c(C(=O)NCc2ccc(F)cc2F)c(=O)n(O)c2nc(OC)ccc12 [XZ407, methyl 2-((3-((2,4-difluorobenzyl)carbamoyl)-1-hydroxy-7-methoxy-2-oxo-1,2-dihydro-1,8-naphthyridin-4-yl)amino)acetate]	–	–	–	–	20 ± 2	0.042 ± 0.005	–	CC50 ([1]; Table 5): 11700 ± 3100 nM; EC50 ([2]; Table 5, read-out: EC50 (nM, IN Mutants) N155H): 31300 ± 320 nM; EC50 [3, 13]: 51.5 ± 12.6 nM; EC50 ([5]; Table 5): 32 ± 13 nM; SI ([5]; Table 5, ratio of CC50 to EC50): 366
Nc1c(C(=O)NCc2ccc(F)cc2F)c(=O)n(O)c2ncc(CCCC3CCCCC3)cc12 [XZ428, 4-Amino-6-(3-cyclohexylpropyl)-N-(2,4-difluorobenzyl)-1-hydroxy-2-oxo-1,2-dihydro-1,8-naphthyridine-3-carboxamide]	–	–	–	–	–	–	–	CC50 ([1]; Table 8): 27400 nM; EC50 ([2]; Table 8, read-out: EC50 (nM, IN mutants) N155H): 146 nM; EC50 ([3]; Table 8, read-out: EC50 (nM, IN mutants) Y143R): 112 nM; IC50 ([4]; Table 7, 3′-processing, read-out: IC50 (μM) 3′-P): 289 ± 49 µM; IC50 ([4]; Table 7, strand transfer, read-out: IC50 (μM) ST): 3.28 ± 0.468 µM; EC50 ([5]; Table 8): 53.4 nM
